In US20040024024A1, “Aromatic sulfone hydroxamates and their use as protease inhibitors” (priority 2001, published 2004):
“And” between values parts separate entries of the source, which are not always exact repeats. Identical values can stand only once. Counter-ions that a name gives are not always drawn.

Tests used:
Human recombinant MMP-2 = biological target: T1, Human recombinant MMP-2 (Homo sapiens, UniProt P08253); test: In vitro MMP inhibition, Ki determination (fluorogenic substrate II); assay type: biochemical
T1 construct: made in house; host or cells: MMP-2-transfected p2AHT2 cells
T1 sequence (P08253 110-660): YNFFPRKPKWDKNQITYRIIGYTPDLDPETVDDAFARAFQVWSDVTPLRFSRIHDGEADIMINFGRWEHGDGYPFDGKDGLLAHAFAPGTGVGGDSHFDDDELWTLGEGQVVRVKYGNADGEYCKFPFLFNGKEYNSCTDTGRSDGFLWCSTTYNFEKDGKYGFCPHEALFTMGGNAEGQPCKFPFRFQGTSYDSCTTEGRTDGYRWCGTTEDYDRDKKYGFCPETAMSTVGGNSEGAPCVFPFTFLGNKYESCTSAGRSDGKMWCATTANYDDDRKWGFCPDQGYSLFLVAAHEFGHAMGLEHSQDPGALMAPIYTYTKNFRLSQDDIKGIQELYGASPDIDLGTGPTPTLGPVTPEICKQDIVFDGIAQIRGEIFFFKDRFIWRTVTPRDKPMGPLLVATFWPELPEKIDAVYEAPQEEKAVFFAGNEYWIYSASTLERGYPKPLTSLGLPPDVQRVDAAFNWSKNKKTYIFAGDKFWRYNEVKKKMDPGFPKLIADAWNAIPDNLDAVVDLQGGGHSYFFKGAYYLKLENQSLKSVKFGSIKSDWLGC
Experimental: (§1) Several hydroxamates and salts thereof were analyzed in in vitro assays to determine their ability to inhibit the MMP cleavage of peptide substrates. Inhibition (Ki) and IC50 constants were calculated from the assayed hydroxamate-MMP interactions.
(§2) Human recombinant MMP-1, MMP-2, MMP-9, MMP-13, and MMP-14 were used in this assay. All enzymes were prepared in Assignee's laboratories following usual laboratory procedures. Protocols for the preparation and use of these enzymes are available in the scientific literature. See, e.g., Enzyme Nomenclature (Academic Press, San Diego, Calif., 1992) (and the citations therein). See also, Frije et al., J. Biol. Chem., 26(24), 16766-73 (1994).
The MMP-2 proenzyme was purified by gelatin Sepharose chromatography from MMP-2-transfected p2AHT2 cells provided by Dr. Gregory Goldberg of Washington University (St. Louis, Mo.).
(§3) All MMPs were activated using 4-aminophenylmercuric acetate (“APMA”, Sigma Chemical, St. Louis, Mo.) or trypsin. MMP-9 also was activated using human recombinant MMP-3 (purified in Assignee's laboratory following standard cloning and purification techniques).
(§4) Two fluorogenic, methoxycoumarin-containing polypeptide substrates were used in the MMP inhibition assays:
(§5) MCA-ArgProLeuGlyLeuDpaAlaArgGluArgNH2 (II)
(§6) Here, “Dpa” is 3-(2,4-dinitrophenyl)-L-2,3-diaminopropionyl group, and “MCA” is 7-methoxycoumarin-4-yl acetyl. Substrate (I) was purchased from Baychem (Redwood City, Calif.), and substrate II was prepared Assignee's laboratory. Substrate I was used in the IC50 determination assays, while substrate II was used in the Ki determination assays. In the absence of MMP inhibitory activity, either substrate is cleaved at the Gly-Leu peptide bond. This cleavage separates the highly fluorogenic peptide from the 2,4-dinitrophenyl quencher, thus resulting in increase of fluorescent intensity.
(§7) The stock solutions of the assayed hydroxamates (or salts thereof) were prepared in 1% dimethyl sulfoxide (DMSO). These stock solutions were diluted in Buffer A (100 mM Tris-HCl, 100 mM NaCl, 10 mM CaCl2, 0.05% polyoxyethylene 23 lauryl ether, pH 7.5) to obtain solutions with different hydroxamate concentrations, i.e., assay solutions with different concentrations of the assayed MMP inhibitory compound. The experiment controls contained the same amount of Buffer A/DMSO as the assayed sample, but contained no hydroxamate (or salt thereof).
The assays from which the Ki determinations were made were performed as follows. The assayed hydroxamate samples were incubated in separate wells of untreated white polystyrene plates (Nunc Nalgene International, Rochester, N.Y.), and analyzed on a Tecan SpectraFlour Plus plate reader. The excitation wavelength was 330 nm, and the emission wavelength—420 nm. All samples (assayed hydroxamates and controls) were incubated in separate plate wells at room temperature for 1 hr in the presence of 4 μM of MMP substrate (II). In the absence of MMP inhibitory activity, substrate II was cleaved at the Gly-Leu bond resulting in an increase of relative fluorescence. Inhibition was observed as a reduced rate of this increase in relative fluorescence. The various hydroxamates were analyzed using a single low enzyme concentration with a single substrate concentration fixed at or below the Km. This protocol is a modification of method by Knight et al., FEBS Lett., 296(3), 263-266 (1992). Apparent inhibitory constants were determined by non-linear regression of reaction velocity as a function of inhibitor and enzyme concentration using Morrison's equation, as described by Kuzmic, Anal. Biochem. 286, 45-50 (2000). […] Since the substrate concentration was chosen to be at or below the Km, the apparent Ki's from this analysis were reported as Ki's without correction for the influence of substrate.

Human recombinant MMP-14 = biological target: T2, Human recombinant MMP-14 (Homo sapiens, UniProt P50281); test: as above; assay type: biochemical
T2 construct: The catalytic domain enzyme was expressed in E. coli inclusion bodies, solubilized in urea; made in house
Experimental: as §1, §2
The MMP-14 full length cDNA was provided by Dr. Gregory Goldberg of Washington University (St. Louis, Mo.). The catalytic domain enzyme was expressed in E. coli inclusion bodies, solubilized in urea, purified on a preparative […] reverse phase HPLC column, and then refolded in the presence of zinc acetate and purified for use.
as §3, §4, §5, §6, §7
The assays from which the Ki determinations were made were performed as follows. The assayed hydroxamate samples were incubated in separate wells of untreated white polystyrene plates (Nunc Nalgene International, Rochester, N.Y.), and analyzed on a Tecan SpectraFlour Plus plate reader. The excitation wavelength was 330 nm, and the emission wavelength—420 nm. All samples (assayed hydroxamates and controls) were incubated in separate plate wells at room temperature for 1 hr in the presence of 4 μM of MMP substrate (II). In the absence of MMP inhibitory activity, substrate II was cleaved at the Gly-Leu bond resulting in an increase of relative fluorescence. Inhibition was observed as a reduced rate of this increase in relative fluorescence. The various hydroxamates were analyzed using a single low enzyme concentration with a single substrate concentration fixed at or below the Km. This protocol is a modification of method by Knight et al., FEBS Lett., 296(3), 263-266 (1992). Apparent inhibitory constants were determined by non-linear regression of reaction velocity as a function of inhibitor and enzyme concentration using Morrison's equation, as described by Kuzmic, Anal. Biochem. 286, 45-50 (2000). Modifications were made in the non-linear regression method to allow a common control reaction rate and effective enzyme concentration to be shared between all dose-response relationships on a given assay plate. […]

[1] = substrate (II) 4 μM, 1 hr room temperature, apparent Ki, values in parenthesis

| Ki (Human recombinant MMP-2; value in parenthesis) [nM] | Ki (Human recombinant MMP-14; value in parenthesis) [nM] | Ki (Human recombinant MMP-2; value in parentheses) [nM] | Ki (Human recombinant MMP-14; value in parentheses) [nM] | SMILES | further results |
| --- | --- | --- | --- | --- | --- |
| 625 | > 10000 |  |  | O=C(NO)C1(S(=O)(=O)c2ccc(OCCCc3cccc(Cc4ccccc4)c3)cc2)CCOCC1 [Example 98] |  |
| 793 | > 10000 |  |  | O=C(NO)C1(S(=O)(=O)c2ccc(OCCc3cccc(-c4ccc(F)cc4)c3)cc2)CCOCC1 [Example 123] |  |
| 213 | 5150 |  |  | O=C(NO)C1(S(=O)(=O)c2ccc(OCCCc3cccc(-c4ccccn4)c3)cc2)CCOCC1 [Example 148] |  |
| 978 | > 10000 |  |  | Cc1ccccc1-c1cccc(CCCOc2ccc(S(=O)(=O)C3(C(=O)NO)CCOCC3)cc2)c1 [Example 164] |  |
|  |  | 645 | > 10000 | O=C(NO)C1(S(=O)(=O)c2ccc(OCCCc3cccc(-c4ccc([N+](=O)[O-])cc4)c3)cc2)CCOCC1 [Example 626] |  |
|  |  | 4680 | > 10000 | C=Cc1ccc(-c2cccc(CCCOc3ccc(S(=O)(=O)C4(C(=O)NO)CCOCC4)cc3)c2)cc1 [Example 635] |  |
|  |  | 279 | > 10000 | O=C(NO)C1(S(=O)(=O)c2ccc(OCCCc3cccc(-c4ccsc4)c3)cc2)CCOCC1 [Example 632] |  |
| 159 | 5510 |  |  | O=C(NO)C1(S(=O)(=O)c2ccc(OCCCc3cccc(-c4cccnc4)c3)cc2)CCOCC1 [Example 150] |  |
|  |  | 623 | 7580 | N#Cc1ccc(-c2cccc(CCCOc3ccc(S(=O)(=O)C4(C(=O)NO)CCOCC4)cc3)c2)cc1 [Example 624] |  |
|  |  | 1020 | > 10000 | O=C(NO)C1(S(=O)(=O)c2ccc(OCCCc3cccc(-c4ccc5ccccc5c4)c3)cc2)CCOCC1 [Example 629] |  |
| 1010 | > 10000 |  |  | O=C(NO)C1(S(=O)(=O)c2ccc(OCCCc3cccc(-c4ccccc4F)c3)cc2)CCOCC1 [Example 163] |  |
| 807 | > 10000 |  |  | O=C(NO)C1(S(=O)(=O)c2ccc(OCCc3cccc(-c4ccccc4F)c3)cc2)CCOCC1 [Example 115] |  |
|  |  | 112 | 5390 | O=C(NO)C1(S(=O)(=O)c2ccc(OCCCc3cccc(-n4ccnc4)c3)cc2)CCOCC1 [Example 574] |  |
|  |  | 8120 | > 10000 | O=C(NO)C1(S(=O)(=O)c2ccc(OCCCc3cccc(-c4cccc5ccccc45)c3)cc2)CCOCC1 [Example 638] |  |
|  |  | 983 | > 10000 | O=C(NO)C1(S(=O)(=O)c2ccc(OCCCc3cccc(-c4coc5ccccc45)c3)cc2)CCOCC1 [Example 634] |  |
|  |  | 586 | > 10000 | O=C(NO)C1(S(=O)(=O)c2ccc(OCCCc3cccc(-c4cccs4)c3)cc2)CCOCC1 [Example 595] |  |

Further lines, the molecule ahead of its results:

| SMILES | Ki (Human recombinant MMP-2; value in parenthesis) [nM] | Ki (Human recombinant MMP-14; value in parenthesis) [nM] | Ki (Human recombinant MMP-2; value in parentheses) [nM] | Ki (Human recombinant MMP-14; value in parentheses) [nM] | further results |
| --- | --- | --- | --- | --- | --- |
| O=C(CCCOc1ccc(S(=O)(=O)C2(C(=O)NO)CCOCC2)cc1)Nc1ccc(OC(F)(F)F)cc1 [Example 228] | 22.4 | 6290 |  |  |  |
| O=C(CCCOc1ccc(S(=O)(=O)C2(C(=O)NO)CCOCC2)cc1)Nc1cccc(OC(F)(F)F)c1 [Example 181] | 15.8 | 4830 |  |  |  |
| COCCN1CCC(C(=O)NO)(S(=O)(=O)c2ccc(OCCCc3cc(-c4ccc(F)cc4F)cs3)cc2)CC1 [Example 47, 4-[(4-{3-[4-(2,4-difluorophenyl)thien-2-l]propoxy}phenyl)sulfonyl]-N-hydroxy-1-(2-methoxyethyl)piperidine-4-carboxamide Hydrochloride] |  |  |  |  | Ki (Human recombinant MMP-2; [1]): 19.2 nM and 46.5 nM; Ki (Human recombinant MMP-14; [1]): 3320 nM and 5290 nM |
| O=C1Nc2ccc(-c3noc(CCCOc4ccc(S(=O)(=O)C5(C(=O)NO)CCN(C6CC6)CC5)cc4)n3)cc21 [Example 142] | 96.4 | > 10000 |  |  |  |
| O=C(NO)C1(S(=O)(=O)c2ccc(OCCCc3nc(-c4ccc(OC(F)(F)F)cc4)no3)cc2)CCN(C2CC2)CC1 [Example 51, 1-cyclopropyl-N-hydroxy-4-{[4-(3-{3-[4-(trifluoromethoxy)phenyl]-1,2,4-oxadiazol-5-yl}propoxy)phenyl]sulfonyl}piperidine-4-carboxamide Hydrochloride] |  |  |  |  | Ki (Human recombinant MMP-2; [1]): 93.7 nM; Ki (Human recombinant MMP-14; [1]): 688 nM |
| O=C(NO)C1(S(=O)(=O)c2ccc(OCCCc3cccc(-c4ccc(F)cc4)c3)cc2)CCN(C2CC2)CC1 [Example 139] | 1410 | > 10000 |  |  |  |
| O=C(NO)C1(S(=O)(=O)c2ccc(OCCCc3nc(-c4cccnc4)no3)cc2)CCOCC1 [Example 578] |  |  | 72.1 | > 10000 |  |
| COCCN1CCC(C(=O)NO)(S(=O)(=O)c2ccc(OCCCc3nc(-c4ccc(OC(F)(F)F)cc4)no3)cc2)CC1 [Example 190] | 283 | > 10000 |  |  |  |
| CC(C)C(=O)c1cccc(CCCOc2ccc(S(=O)(=O)C3(C(=O)NO)CCOCC3)cc2)c1 [Example 95] | 149 | 5410 |  |  |  |
| O=C(CCCc1ccc(S(=O)(=O)C2(C(=O)NO)CCOCC2)cc1)c1cccc(-c2ccccc2)c1 [Example 219] | 105 | 7940 |  |  |  |
| O=C(COc1ccc(S(=O)(=O)C2(C(=O)NO)CCOCC2)cc1)c1cccc(-c2ccccc2)c1 [Example 563] |  |  | 70.1 | 4400 |  |
| COCCN1CCC(C(=O)NO)(S(=O)(=O)c2ccc(OCCCc3nc(-c4ccc(CC(C)C)cc4)no3)cc2)CC1 [Example 175] | 872 | > 10000 |  |  |  |
| O=C(NO)C1(S(=O)(=O)c2ccc(OCCCn3nnc(-c4ccc(OC(F)(F)F)cc4)n3)cc2)CCN(CC2CC2)CC1 [Example 53] |  |  |  |  | Ki (Human recombinant MMP-2; [1]): 697 nM; Ki (Human recombinant MMP-14; [1]): > 10000 nM |
